Measured values taken from ChEMBL document CHEMBL1146612 (Bioorg Med Chem Lett, 2003).

Key:
Histamine H1 receptor = Histamine H1 receptor (Rattus norvegicus, UniProt P31390); assay: Ability to displace [3H]pyrilamine from histamine H1 receptor in male Sprague-Dawley rat brain membranes; assay type: tissue-based, Membrane
Histamine H3 receptor = Histamine H3 receptor (Cavia porcellus, UniProt Q9JI35); assay: Binding affinity against H3 receptor in guinea pig brain using [3H]N-alpha-methyl histamine as radioligand
[1] = target: Histamine H1 receptor (Rattus norvegicus) (UniProt P31390); assay: Ability to displace [3H]pyrilamine from histamine H1 receptor in male Sprague-Dawley rat brain membranes at 1 ug/mL; assay type: tissue-based; settings: Membrane
Chain of Histamine H1 receptor (Rattus norvegicus) (P31390 whole entry): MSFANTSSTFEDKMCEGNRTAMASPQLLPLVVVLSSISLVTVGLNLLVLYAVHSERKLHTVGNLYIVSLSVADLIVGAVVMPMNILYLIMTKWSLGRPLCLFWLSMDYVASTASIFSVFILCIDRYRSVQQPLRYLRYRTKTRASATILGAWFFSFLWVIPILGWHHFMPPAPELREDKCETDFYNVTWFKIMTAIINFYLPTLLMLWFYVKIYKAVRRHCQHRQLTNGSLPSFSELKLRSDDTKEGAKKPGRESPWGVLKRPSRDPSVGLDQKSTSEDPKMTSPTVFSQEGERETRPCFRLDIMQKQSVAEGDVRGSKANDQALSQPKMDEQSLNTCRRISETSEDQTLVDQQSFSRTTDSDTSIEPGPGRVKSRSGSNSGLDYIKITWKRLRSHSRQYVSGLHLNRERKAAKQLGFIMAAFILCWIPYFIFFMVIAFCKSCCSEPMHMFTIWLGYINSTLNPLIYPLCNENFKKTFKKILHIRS

Chain of Histamine H3 receptor (Q9JI35 whole entry): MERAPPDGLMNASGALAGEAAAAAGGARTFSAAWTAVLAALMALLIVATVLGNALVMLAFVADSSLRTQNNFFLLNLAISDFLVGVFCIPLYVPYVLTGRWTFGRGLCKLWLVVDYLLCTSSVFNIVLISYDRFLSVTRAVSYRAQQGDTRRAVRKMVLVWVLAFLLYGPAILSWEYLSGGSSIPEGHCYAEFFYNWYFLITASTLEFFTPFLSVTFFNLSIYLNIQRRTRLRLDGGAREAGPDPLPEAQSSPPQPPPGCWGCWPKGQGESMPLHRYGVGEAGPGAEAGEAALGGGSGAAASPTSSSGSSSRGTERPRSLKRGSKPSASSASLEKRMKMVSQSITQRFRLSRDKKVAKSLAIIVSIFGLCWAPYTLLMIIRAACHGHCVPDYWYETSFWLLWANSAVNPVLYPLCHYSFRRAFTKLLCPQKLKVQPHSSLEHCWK
Chain of Histamine H1 receptor (P31390 whole entry): as the sequence (P31390 whole entry) above

SMILES	Ki (Histamine H1 receptor) [nM]	Ki (Histamine H3 receptor) [nM]	inhibition [1] [%]
CN(CCCCCc1c[nH]cn1)CCC(c1ccc(Cl)cc1)c1ccccn1 (stereo not given)	6	50	–
c1ccc(C(CCNCCCCc2c[nH]cn2)c2ccccn2)nc1	–	4	< 50
Clc1ccc(C(CCNCCCCCc2cnc[nH]2)c2ccccn2)cc1 (stereo not given)	39	33	–
O=C(CC(c1ccc(Cl)cc1)c1ccccn1)NCCc1c[nH]cn1 (stereo not given)	–	–	< 50
CN(CCc1c[nH]cn1)C(=O)CC(c1ccc(Cl)cc1)c1ccccn1 (stereo not given)	–	–	< 50
Clc1ccc(C(CCNCCCc2c[nH]cn2)c2ccccn2)cc1 (stereo not given)	–	–	< 50

Results, then the compound that gave them:

Ki (Histamine H1 receptor) [nM]	Ki (Histamine H3 receptor) [nM]	inhibition [1] [%]	SMILES
–	1	< 50	O=C(CC(c1ccc(Cl)cc1)c1ccccn1)NCCCCc1c[nH]cn1 (stereo not given)
–	–	< 50	N=C(CC(c1ccc(Cl)cc1)c1ccccn1)NCCc1c[nH]cn1 (stereo not given)
–	1	< 50	O=C(CC(c1ccccn1)c1ccccn1)NCCCCc1c[nH]cn1
920	23	–	O=C(NCCCCc1cnc[nH]1)NCCC(c1ccc(Cl)cc1)c1ccccn1 (stereo not given)
–	–	< 50	O=C(CCc1c[nH]cn1)NCCC(c1ccc(Cl)cc1)c1ccccn1 (stereo not given)
–	–	< 50	CN(CCC(c1ccc(Cl)cc1)c1ccccn1)C(=O)CCc1c[nH]cn1 (stereo not given)
–	7	< 50	CN(CCCCc1c[nH]cn1)C(=O)CC(c1ccc(Cl)cc1)c1ccccn1 (stereo not given)
